{
  "source": "patent US9561210B2",
  "about": "“Therapeutic agent for ocular disease” (AskAt Inc., priority 2013, dated 2017)",
  "key": {"[1]": {"system": "human retinal microvascular endothelial cells (HRMEC)", "assay": "VEGF-induced HRMEC proliferation study", "assay_type": "cell-based", "description": "VEGF-Induced Human Retinal Microvascular Endothelial Cells (HRMEC) Proliferation Study\nVEGF is a factor which promotes neovascularization and is thought to be one of the causes of development or progression of age-related macular degeneration (Prog. Retinal Eye Res., 22 (1), 1-29 (2003)). Therefore, the inhibitory effect of the compounds of the invention against VEGF-induced cell proliferation is assessed by using human retinal vascular endothelial cells (HRMEC).\nHRMEC are seeded in 96-well plates at 2.0×10^3 cells/well, and is cultured under the conditions of 5% CO2/95% air for 24 hours. Then the culture medium is exchanged with CSC medium containing 10% fetal bovine serum and the cells are cultured for 24 hours. The culture broth is exchanged with vehicle medium or study medium containing the compound of the invention at 0.1, 1.0, 10, or 100 microM. After preincubation for 1 hour, VEGF-A solution is added to be a concentration of 10 ng/ml, and the cells cultured for 24 hours. The culture broth without adding VEGF-A solution is also treated in the same manner. Then to the culture broth is added CCK-8, and the cells are cultured for 3 hours, then the absorbance (OD492) is measured.\nIn accordance with the following formula, the cell proliferation inhibition rate (%) of each compound-treated group is calculated. The number of examples of each group is six. Cell proliferation inhibition rate (%)=([…])×100 [equation] BO: absorbance of vehicle-treated group BX: absorbance of compound-treated group BN: absorbance of non-treated group"}, "[2]": {"system": "choroidal neovascularization", "assay": "Laser-induced choroidal neovascularization (CNV) model", "assay_type": "in vivo, male C57BL/6J mouse", "settings": "in comparison to the vehicle-treated group", "description": "Laser-Induced Choroidal Neovascularization (CNV) Model A male C57BL/6J mouse is used. Mydrin P ophthalmic solution (registered trademark, Santen Pharmaceutical) is instilled into the right eye of the mouse to cause mydriasis. Animals are anesthetized, and laser irradiation is performed on around the circumference of the optic disk with eight equally space using a laser photocoagulation apparatus. After photocoagulation, intravitreal administration of drugs to the right eye (administering 2 microL of a solution of 60 microM and 600 microM using a solvent obtained by mixing 0.1N NaOH and pH 7.2 PBS containing 1.5×10^-3N HCl, at the ratio of 16:84) or oral administration/subcutaneous administration/intraperitoneal administration is conducted. After instillation of […] (registered trademark, Daiichi Sankyo) ophthalmic solution 0.5% into the right eye, the ocular fundus photography is promptly performed using an ocular fundus camera. […] Choroidal flat mounts specimens are observed using a confocal laser scanning microscope, and the CNV area of the image is calculated using the analysis software OLYMPUS FLUOVIEW FV1000."}},
  "data": [
    {"smiles": "CC(C)(C)c1cc2c(cc1Cl)C=C(C(=O)O)[C@@H](C(F)(F)F)O2", "note": "[Compound A, (S)-6-chloro-7-(1,1-dimethylethyl)-2-trifluoromethyl-2H-1-benzopyran-3-carboxylic acid]", "values": [
      {"measurement": "effect on the proliferation of HRMEC", "setting": "[1]; Compound A alone, without VEGF-A, FIG. 1 left side", "value": "no effect"},
      {"measurement": "inhibition of the proliferation of HRMEC induced by VEGF-A", "setting": "[1]; VEGF-A 10 ng/ml, 24 hours, compound at 0.1, 1.0, 10, or 100 microM, FIG. 1 right side", "value": "inhibits the proliferation of HRMEC induced by VEGF-A in a dose-dependent manner"},
      {"measurement": "inhibition of VEGF-A-induced cell proliferation", "setting": "[1]; at 10 to 100 microM, VEGF-A 10 ng/ml", "value": "inhibits the cell proliferation to control levels"},
      {"measurement": "CNV area", "setting": "[2]; choroidal flat mount, day 15 after laser, FIG. 2", "value": "significantly reduced"},
      {"measurement": "CNV area (pathological image)", "setting": "[2]; histopathological specimens, FIG. 3", "value": "significantly reduced"}
    ]}
  ]
}
